Patent US5741788A, “Heterocyclic compounds and their preparation and use” (Novo Nordisk A/S, priority 1994, dated 1998)
Where a name gives a salt, the structure may show the parent alone. Read-outs that look alike come from different tables or passages of the source.

Experiments:
[1] = target: T1, M1-site (pirenzepine sensitive site) of muscarinic receptors (Rattus norvegicus, UniProt P08482); test: inhibition of ^3 H-PRZ (pirenzepine, [N-methyl-^3 H]) binding to rat cerebral cortex membranes; parameters: species or system male Wistar rats
T1 construct: Fresh cortex (0.1-1 g) from male Wistar rats (150-200 g) is homogenized; from tissue; host or cells: cerebral cortex of male Wistar rats
T1 sequence (P08482 1-460): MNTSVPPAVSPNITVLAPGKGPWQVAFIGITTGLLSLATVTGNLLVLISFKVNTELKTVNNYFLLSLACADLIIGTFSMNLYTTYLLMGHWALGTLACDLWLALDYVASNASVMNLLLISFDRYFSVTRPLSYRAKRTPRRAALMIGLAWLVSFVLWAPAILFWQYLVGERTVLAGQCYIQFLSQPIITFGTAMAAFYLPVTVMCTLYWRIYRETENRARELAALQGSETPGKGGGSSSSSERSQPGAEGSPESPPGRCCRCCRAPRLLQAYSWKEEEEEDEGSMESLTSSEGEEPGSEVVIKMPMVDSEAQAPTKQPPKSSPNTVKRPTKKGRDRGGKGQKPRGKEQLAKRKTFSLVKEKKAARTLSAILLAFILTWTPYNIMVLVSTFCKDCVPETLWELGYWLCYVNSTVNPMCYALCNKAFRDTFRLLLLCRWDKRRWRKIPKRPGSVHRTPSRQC
Text: Furthermore the pharmacological properties of the compounds of the invention can also be illustrated by determining their capability to inhibit ^3 H-PRZ (pirenzepine, [N-methyl-^3 H]) binding to rat cerebral cortex membranes. Pirenzepine binds selectively to subtype of muscarinic receptors. Historically the type is named the M1 -site, whereas pirenzepine sensitive site would be more appropriate. Although selective for M1 -sites pirenzepine also interact with M2 -sites.
All preparations are performed at 0°-4° C. unless otherwise indicated. Fresh cortex (0.1-1 g) from male Wistar rats (150-200 g) is homogenized for 5-10 s. in 10 ml 20 mM Hepes pH: 7.4, with an Ultra-Turraxhomogenizer. The homogenizer is rinzed with 2×10 ml of buffer and the combined suspension centrifuged for 15 min at 40,000×g. The pellet is washed three times with buffer. In each step the pellet is homogenized as before in 3×10 ml of buffer and centrifuged for 10 min at 40,000×g.
The final pellet is homogenized in 20 mM Hepes pH: 7.4 (100 ml per g of original tissue) and used for binding assay. Aliquots of 0.5 ml is added 20 μl of test solution and 25 μl of ^3 H-Pirenzepine (1.0 nM, final conc.), mixed and incubated for 60 min at 20° C. Non-specificbinding is determined in triplicate using atropine (1 μg/ml, final conc.) as the test substance. After incubation samples are added 5 ml of ice-cold buffer and poured directly onto Whatman GF/C glass fiber filters inder suction and immediately washed 2 times with 5 ml of ice-cold buffer. The amount of radioactivity on the filters are determined by conventional liquid scintillation counting. Specific binding is total binding minus non-specific binding.
Test substances are dissolved in 10 ml water, at a concentration of 0.22 mg/ml. 25-75% inhibition of specific binding must be obtained before calculation of IC50.
The test value will be given as IC50 (the concentration (nM) of the test substance which inhibits the specific binding of ^3 H-PRZ by 50%).
(§1) IC50 =(applied test substance concentration)×(Cx /Co -Cx)nM
(§2) where Co is specific binding in control assays and Cx is the specific binding in the test assay. (The calculations assume normal mass-action kinetics).

[2] = target: muscarinic acetylcholine receptors; test: inhibition of specific binding of ^3 H-Oxotremorine-M (^3 H-Oxo) to rat cortex homogenate; parameters: species or system male Wistar rats; details: 1.0 nM radioligand, 30 min at 25° C., pH 7.4
Text: The pharmacological properties of the compounds of the invention can be illustrated by determining their capability to inhibit the specific binding of ^3 H-Oxotremorine-M (^3 H-Oxo). Birdsdall N. J. M., Hulme E. C., and Burgen A. S. V. (1980). "The Character of Muscarinic Receptors in Different Regions of the Rat Brain". Proc. Roy. Soc. London (Series B) 207,1.
^3 H-Oxo labels muscarinic receptor in the CNS (with a preference for agonist domains of the receptors). Three different sites are labelled by ^3 H-Oxo. […] Using the present experimental conditions only the high and medium affinity sites are determined.
The inhibitory effects of compounds on ^3 H-Oxo binding reflects the affinity for muscarinic acetylcholine receptors.
All preparations are performed at 0°-4° C. unless otherwise indicated. Fresh cortex (0.1-1 g) from male Wistar rats (150-250 g) is homogenized for 5-10 s in 10 ml 20 mM Hepes pH: 7.4, with an Ultra-Turrax homogenizer. The homogenizer is rinsed with 10 ml of buffer and the combined suspension centrifuged for 15 min. at 40,000×g. The pellet is washed three times with buffer. In each step the pellet is homogenized as before in 2×10 ml of buffer and centrifuged for 10 min. at 40,000×g.
The final pellet is homogenized in 20 mM Hepes pH: 7.4 (100 ml per g of original tissue) and used for binding assay. Aliquots of 0.5 ml is added 25 ul of test solution and 25 ul of ^3 H-Oxotremorine (1.0 nM, final concentration) mixed and incubated for 30 min. at 25° C. Non-specific binding is determined in triplicate using arecoline (1 ug/ml, final concentration) as the test substance. After incubation samples are added 5 ml of ice-cold buffer and poured directly onto Whatman GF/C glass fiber filters under suction and immediately washed 2 times with 5 ml of ice-cold buffer. The amount of radioactivity on the filters are determined by conventional liquid scintillation counting. Specific binding is total binding minus non specific binding.
Test substances are dissolved in 10 ml water (if necessary heated on a steam-bath for less than 5 min.) at a concentration of 2.2 mg/ml. 25-75% inhibition of specific binding must be obtained before calculation of IC50.
The test value will be given as IC50 (the concentration (nM) of the test substance which inhibits the specific binding of ^3 H-Oxo by 50%).
as §1, §2

[3] = target: muscarinic receptor in the CNS; details: read-out: affinity of site labelled by ^3 H-Oxo, cited from earlier work

SMILES	IC50 [1]	^3 H-Oxo-M IC50 [2]	IC50 ([1]; rat cortex, 1.0 nM ^3 H-Pirenzepine, 60 min at 20° C., pH 7.4, read-out: ^3 H-Pz IC50)	Kd ([3]; first of three sites (high affinity))	Kd ([3]; second of three sites (medium affinity))	Kd ([3]; third of three sites, not determined under the present experimental conditions)
CN1C2CCC1c1c(sc3nsnc13)C2.O=C(O)C(=O)O (stereo not shown) [Compound 1, 6,8-Ethano-7-methyl-5,6,7,8-tetrahydro-1,2,5-thiadiazolo[3',4':4,5]thieno[3,2-c]pyridine oxalate]	> 1000 nM	270 ng/mL				
C1Cc2sc3nsnc3c2CN1.O=C(O)C(=O)O [Compound 2, 5,6,7,8-Tetrahydro-1,2,5-thiadiazolo[3',4':4,5]thieno[3,2-c]pyridine oxalate]		6.4 ng/mL	284 nM			
C1CC2CN(C1)Cc1c2sc2nsnc12.O=C(O)C(=O)O (stereo not shown) [Compound 3, 5,9-Methano-5,6,7,8,9,10-hexahydro-1,2,5-thiadiazolo[3',4':4,5]thieno[3,2-c]azocine oxalate]	26 nM	2.2 ng/mL				
O=C(O)C(=O)O.c1cc2nsnc2c2c1CCNC2 [Compound 4, 6,7,8,9-Tetrahydro[1,2,5]thiadiazolo[3,4-h]isoquinoline oxalate]	255 nM	14 ng/mL				
CN1CCC2=C(C1)c1nsnc1SC2 [Compound 5, oxalate]	80 nM	14 ng/mL				
C[N+](C)(C)CC#CCN1CCCC1=O [^3 H-Oxo, ^3 H-Oxotremorine-M]				1.8 nM	20 nM	3000 nM
